Measured values published in patent US11819507B2, “Cholecalciferol sulfate salts and their use for the treatment of vitamin D deficiency” (CFSO GMBH, priority 2015, dated 2023).

Assay: Applying the transdermal formulation of Example 8 to skin; residue on the skin checked by TLC
Format: in vivo
Details: about 2 ml of the formulation of Example 8 applied in a thin layer, allowed to penetrate for 4 hours; skin wiped with 96% ethanol cotton pad, extract examined by TLC
Description: About 2 ml of the formulation prepared in Example 8 were applied in a thin layer to the skin of a subject and allowed to penetrate for 4 hours. Subsequently, the skin was well wiped using a sterile cotton pad soaked with 96% ethanol. The cotton pad was boiled with additional 96% ethanol and squeezed. The ethanol was evaporated on a rotary evaporator, and a small amount of chloroform-methanol (9:1 Vol./Vol.) mixture was added to the flask.

C=C1CCC(OS(=O)(=O)O)CC1=CC=C1CCCC2(C)C1CCC2C(C)CCCC(C)C.NCCCCC(N)C(=O)O [L-lysine cholecalciferol sulfate]
L-lysine cholecalciferol sulfate remaining on the skin (TLC on silica gel): substantially no
